The values that follow are results of earlier work, collected in PMC9653884, “Bisindolylmaleimides New Ligands of CaM Protein” (Molecules, 2022).

The data set addresses CaM. Conditions: read-out: Kd of reported CaM inhibitor.
Take `NCCCCCCNS(=O)(=O)c1cccc2c(Cl)cccc12` [W7]: the Kd (as a rule, the constant that tells how readily two partners part at equilibrium) is 7 µM. For `NCCc1c[nH]c2ccc(O)cc12` [Serotonin], the Kd was 0.71 µM.

For `CC[C@]1(O)C[C@@H]2CN(CCc3c([nH]c4ccccc34)[C@@](C(=O)OC)(c3cc4c(cc3OC)N(C)[C@@H]3[C@]45CCN4CC=C[C@@](CC)(C[C@@]36OC(=O)N(CCCl)C6=O)[C@H]45)C2)C1` [KAR-2], the Kd was 5 µM. Consider `CN(C)CCCN1c2ccccc2CCc2ccccc21` [Imipramine], for which the Kd is 14 µM.
